Experimental data taken from the OligoGym collection.
Where “and” joins values, the source holds several entries; their conditions need not be identical. Identical values can stand only once. After the bases stand the sugars from the 5' end (letter, count) and the backbone: PS all phosphorothioate, else s phosphorothioate and o phosphodiester by linkage. Methylation of C is not given here. e = 2'-O-(2-methoxyethyl) (MOE); k = constrained ethyl (cEt); d = 2'-deoxy (DNA); m = 2'-O-methyl

Key:
IRF4 = conditions: ASO
HSD17B13 = conditions: ASO, HepaRG

Work on GTCTAAAGTCCCATCG (sugars k3 d10 k3, PS) yielded a target mRNA inhibition (IRF4; SK-MEL-28, 4 µM) of 40%.
For “TTCATGTAAAGTCTGC (sugars kkdddddddddkekek, PS)”, the target mRNA inhibition (IRF4; MM.1R, 1 µM) was 10% and 12%.
In the case of “AGTTGTAAATGAGTCG (sugars k2 d9 e3 k2, PS)”, the target mRNA inhibition (IRF4; H929, 0.04 µM) is reported as 57% and 42%, the target mRNA inhibition (IRF4; KMS11, 0.2 µM) is reported as 86% and 92% and the target mRNA inhibition (IRF4; MM.1R, 0.074 µM) is reported as 10%. It also gave a target mRNA inhibition (IRF4; MM.1R, 0.222 µM) of 25%, a target mRNA inhibition (IRF4; MM.1R, 0.666 µM) of 55% and a target mRNA inhibition (IRF4; MM.1R, 1 µM) of 66%. The target mRNA inhibition (IRF4; MM.1R, 2 µM) was 77%.
Sequence GGAAACGAGAACGCAC (sugars k3 d10 k3, PS) has a target mRNA inhibition (IRF4; SK-MEL-28, 4 µM) of 30%.
GGATTCTATAAATAGA (sugars k3 d10 k3, PS) was tested, and the target mRNA inhibition (IRF4; SK-MEL-28, 4 µM) was 25%.
ACTGACCTTTACTTCA (sugars k3 d10 k3, PS) was tested, and the target mRNA inhibition (IRF4; SK-MEL-28, 4 µM) was 43%.
In the case of TAAAAGGTTCCTGTCA (sugars k4 d8 k4, PS), the target mRNA inhibition (IRF4; SK-MEL-28, 4 µM) is reported as 43%.
AAAACAGCCGCCGGCA (sugars k3 d10 k3, PS) showed a target mRNA inhibition (IRF4; MM.1R, 1 µM) of -9%.
With GCTCAACCAGTTCCTC (sugars k3 d10 k3, PS) the target mRNA inhibition (IRF4; SK-MEL-28, 4 µM) was 38%.
Work on GCTGTGTGTCAAAGAG (sugars k4 d8 k4, PS) yielded a target mRNA inhibition (IRF4; SK-MEL-28, 4 µM) of 40%.
“CCTCAGTTTGTGAAGC (sugars kddddddddddkekek, PS)” gave a target mRNA inhibition (IRF4; MM.1R, 1 µM) of 26%.
Work on AAGCCGTTCCTTTTCA (sugars k3 d10 k3, PS) yielded a target mRNA inhibition (IRF4; SK-MEL-28, 4 µM) of 29%.
Work on TACCTCAGTTTGTGAA (sugars k3 d10 k3, PS) yielded a target mRNA inhibition (IRF4; MM.1R, 1 µM) of 11%.
ACGACAGCATAGCATT (sugars k3 d10 k3, PS) was tested, and the target mRNA inhibition (IRF4; SK-MEL-28, 4 µM) was 67%.
GTCCCTCCAGCTTCGG (sugars k3 d10 k3, PS) was tested, and the target mRNA inhibition (IRF4; SK-MEL-28, 4 µM) was 3%.
Work on CCTGTCACCTGGCAAC (sugars k3 d10 k3, PS) yielded a target mRNA inhibition (IRF4; SK-MEL-28, 4 µM) of 41%.
CTCTGTAACTGACTAA (sugars k3 d10 k3, PS) showed a target mRNA inhibition (IRF4; MM.1R, 1 µM) of 16%.
Sequence TGCCGCTGTCGATCTG (sugars k3 d10 k3, PS) has a target mRNA inhibition (IRF4; SK-MEL-28, 4 µM) of 32%.
In the case of CCAAAGGCTCCCGACA (sugars k3 d10 k3, PS), the target mRNA inhibition (IRF4; SK-MEL-28, 4 µM) is reported as 29%.
AGGAACGAAGAGCAGG (sugars k3 d10 k3, PS) gave a target mRNA inhibition (IRF4; SK-MEL-28, 4 µM) of 43%.
With ATGAGGGACCAGAACT (sugars k3 d10 k3, PS) the target mRNA inhibition (IRF4; MM.1R, 1 µM) was 6%.
GGGTCCTACCTGCTGG (sugars k3 d10 k3, PS) gave a target mRNA inhibition (IRF4; SK-MEL-28, 4 µM) of 36%.
For CGCAAGGCTCGGAGCG (sugars k3 d10 k3, PS), the target mRNA inhibition (IRF4; SK-MEL-28, 4 µM) was 10%.
With TAACAAGTTATCCAGT (sugars k3 d10 k3, PS) the target mRNA inhibition (IRF4; SK-MEL-28, 4 µM) was 12%.
CCCCTTAGGAACGAAG (sugars k3 d10 k3, PS) gave a target mRNA inhibition (IRF4; MM.1R, 1 µM) of -6%.
With TTACCATTTTCACAAG (sugars k3 d10 k3, PS) the target mRNA inhibition (IRF4; SK-MEL-28, 4 µM) was 8%.
“GACACTTTTAGAGAGG (sugars kkdddddddddkdkdk, PS)” showed a target mRNA inhibition (IRF4; MM.1R, 1 µM) of 14%.
Work on “AAGCATTTTATCATCC (sugars kkdddddddddkekek, PS)” yielded a target mRNA inhibition (IRF4; MM.1R, 1 µM) of 18%.
“AGTATGAGAAACGGCC (sugars kdddddddddkekeke, PS)” was tested, and the target mRNA inhibition (IRF4; MM.1R, 1 µM) was 4%.
Work on AGGAACTGACCTAACT (sugars k3 d10 k3, PS) yielded a target mRNA inhibition (IRF4; SK-MEL-28, 4 µM) of 31%.
AAGCAACACGGGAATT (sugars k3 d10 k3, PS) gave a target mRNA inhibition (IRF4; SK-MEL-28, 4 µM) of 22%.
GGAGTAATAGTAAATA (sugars k3 d10 k3, PS) showed a target mRNA inhibition (IRF4; SK-MEL-28, 4 µM) of 36%.
Work on “AGCATTTTATCATCCG (sugars k3 d9 k3 e1, PS)” yielded a target mRNA inhibition (IRF4; MM.1R, 0.074 µM) of 17%, a target mRNA inhibition (IRF4; MM.1R, 0.222 µM) of 32% and a target mRNA inhibition (IRF4; MM.1R, 0.666 µM) of 61%. It also gave a target mRNA inhibition (IRF4; MM.1R, 1 µM) of 66% and a target mRNA inhibition (IRF4; MM.1R, 2 µM) of 83%.
For GTAAACACATCACTTG (sugars k3 d10 k3, PS), the target mRNA inhibition (IRF4; SK-MEL-28, 4 µM) was 51%.
GGTATTTTTCCGTTCC (sugars k3 d10 k3, PS) showed a target mRNA inhibition (IRF4; MM.1R, 1 µM) of 30%.
CTAGAAAGTGATGCTC (sugars k3 d10 k3, PS) was tested, and the target mRNA inhibition (IRF4; SK-MEL-28, 4 µM) was 39%.
GGGAACAGATAGTTAA (sugars k3 d10 k3, PS) showed a target mRNA inhibition (IRF4; SK-MEL-28, 4 µM) of 26%.
Work on ATTGTCTAAACATCTC (sugars k3 d10 k3, PS) yielded a target mRNA inhibition (HSD17B13; 0.02 µM) of 18%, a target mRNA inhibition (HSD17B13; 0.078 µM) of 33% and a target mRNA inhibition (HSD17B13; 0.313 µM) of 58%. For the same sequence, the target mRNA inhibition (HSD17B13; 1 µM) was 84%, the target mRNA inhibition (HSD17B13; 1.25 µM) was 83% and the target mRNA inhibition (HSD17B13; 5 µM) was 94%.
Work on CTCTAAGTGTAAGAGA (sugars k3 d10 k3, PS) yielded a target mRNA inhibition (HSD17B13; 1 µM) of 28%.
“GACTGCTGCTAGTGCC (sugars k3 d9 k3 e1, PS)” was tested, and the target mRNA inhibition (HSD17B13; 1 µM) was 49%.
In the case of CTTCTGTAGGTTTTGC (sugars k3 d10 k3, PS), the target mRNA inhibition (HSD17B13; 1 µM) is reported as 60%.
For “AGTGCATCTTAAGATA (sugars k3 d1 m1 d8 k3, PS)”, the target mRNA inhibition (HSD17B13; 1 µM) was 17%.
In the case of CTAAACATCTCTGGGA (sugars k3 d10 k3, PS), the target mRNA inhibition (HSD17B13; 1 µM) is reported as 62%.
CCACGATTGTTACATC (sugars k3 d10 k3, PS) gave a target mRNA inhibition (HSD17B13; 1 µM) of 42%.
Sequence TAGAGAGCATAAGTTA (sugars k3 d10 k3, PS) has a target mRNA inhibition (HSD17B13; 1 µM) of 59%.
TCCATTATCCTTACTC (sugars k3 d10 k3, PS) gave a target mRNA inhibition (HSD17B13; 1 µM) of 15%.
With GCTTAATTTTCGGGTT (sugars k3 d10 k3, PS) the target mRNA inhibition (HSD17B13; 1 µM) was 36%.
GGATTAATTCCCTTCC (sugars k3 d10 k3, PS) gave a target mRNA inhibition (HSD17B13; 1 µM) of 10%.
“AATTCACCTTGACTAA (sugars kkdddddddddkekek, PS)” gave a target mRNA inhibition (HSD17B13; 1 µM) of 9%.
TGCAACTTTTAGTCAG (sugars k3 d10 k3, PS) was tested, and the target mRNA inhibition (HSD17B13; 1 µM) was 41%.
Work on TATTTCTTGCGAGAAA (sugars k3 d10 k3, PS) yielded a target mRNA inhibition (HSD17B13; 1 µM) of 30%.
With “TCTTATGTAATAGCCA (sugars k3 d9 k3 e1, PS)” the target mRNA inhibition (HSD17B13; 0.02 µM) was 15%, the target mRNA inhibition (HSD17B13; 0.078 µM) was 18% and the target mRNA inhibition (HSD17B13; 0.313 µM) was 25%. For the same sequence, the target mRNA inhibition (HSD17B13; 1 µM) was 76%, the target mRNA inhibition (HSD17B13; 1.25 µM) was 65% and the target mRNA inhibition (HSD17B13; 5 µM) was 84%.
Sequence “CAGTCTTAAACCTTCC (sugars k3 d1 m1 d8 k3, PS)” has a target mRNA inhibition (HSD17B13; 1 µM) of 59%.
Work on AACTGAAGGTCTGAGC (sugars k3 d10 k3, PS) yielded a target mRNA inhibition (HSD17B13; 1 µM) of 55%.
In the case of CAAGAGTTCTTGCAGA (sugars k3 d10 k3, PS), the target mRNA inhibition (HSD17B13; 1 µM) is reported as 17%.
In the case of “AGGTAGCTTTTGTCCA (sugars kkdddddddddkekek, PS)”, the target mRNA inhibition (HSD17B13; 1 µM) is reported as 26%.
TAGTGGGAGTCGGATT (sugars k3 d10 k3, PS) was tested, and the target mRNA inhibition (HSD17B13; 1 µM) was 54%.
For “TTGGTAAGTATTCCAT (sugars kkdddddddddkekek, PS)”, the target mRNA inhibition (HSD17B13; 1 µM) was 13%.
Sequence TTTCTCTCCATCATCG (sugars k3 d10 k3, PS) has a target mRNA inhibition (HSD17B13; 1 µM) of 27%.
With GAATTATTTCTTGCGA (sugars k3 d10 k3, PS) the target mRNA inhibition (HSD17B13; 1 µM) was 61%.
For CTGTGACGATGTGGCC (sugars k3 d10 k3, PS), the target mRNA inhibition (HSD17B13; 1 µM) was 28%.
Sequence “CTCTUAGCTGTGCACT (sugars k3 d1 m1 d8 k3, PS)” has a target mRNA inhibition (HSD17B13; 0.02 µM) of 16%, a target mRNA inhibition (HSD17B13; 0.078 µM) of 14% and a target mRNA inhibition (HSD17B13; 0.313 µM) of 33%. The target mRNA inhibition (HSD17B13; 1 µM) was 67%, the target mRNA inhibition (HSD17B13; 1.25 µM) was 52% and the target mRNA inhibition (HSD17B13; 5 µM) was 58%.
In the case of “GTCTTAAACCTTCCCT (sugars k3 d9 k3 e1, PS)”, the target mRNA inhibition (HSD17B13; 1 µM) is reported as 50%.
For TGCTGCATTAATGCCA (sugars k3 d10 k3, PS), the target mRNA inhibition (HSD17B13; 1 µM) was 15%.
Work on “CTTAAGATACCCAGGT (sugars k3 d9 k3 e1, PS)” yielded a target mRNA inhibition (HSD17B13; 1 µM) of 45%.
TGAACTGAAACGATCC (sugars k3 d10 k3, PS) gave a target mRNA inhibition (HSD17B13; 1 µM) of 58%.
Work on AAGTTTTGGGACCAAT (sugars k3 d10 k3, PS) yielded a target mRNA inhibition (HSD17B13; 1 µM) of 11%.
Work on TTAGATTGCATAAGAG (sugars k3 d10 k3, PS) yielded a target mRNA inhibition (HSD17B13; 1 µM) of 61%.
“CTTAAACCTTCCCTGT (sugars k3 d1 m1 d8 k3, PS)” was tested, and the target mRNA inhibition (HSD17B13; 1 µM) was 24%.
“GCTGCTAGTGCCAAAC (sugars kkdddddddddkekek, PS)” was tested, and the target mRNA inhibition (HSD17B13; 1 µM) was 62%.
CGATGTGGCCATGATT (sugars k3 d10 k3, PS) was tested, and the target mRNA inhibition (HSD17B13; 1 µM) was 44%.
